The text below walks through data of article PMC9328652, “A novel class of fast‐acting antimalarial agents: Substituted 15‐membered azalides” (British Journal of Pharmacology, 2020).

≈ marks a conversion by molar mass, not a printed value. Like-named read-outs stand apart in the source and are kept apart here. Marks after values point to notes of the source that are not given here.

One data set has as its system HepG2 cells. The following applies: cited from earlier work.
Data set [1] concerns Plasmodium falciparum V1/S (CQ,PY). The experiment in a line: microbe, parasite or virus in culture. It counts as cell-based. The following applies: 72 h, read-out: IC50 V1/S (CQ,PY). The procedure:
(§1) The activity of the test compounds against P. falciparum in vitro was determined using the tritiated hypoxanthine incorporation assay of Desjardins et al. and additionally modified by Milhous and Chulay (Chulay, Haynes, & Diggs, [1983]; Milhous, Weatherly, Bowdre, & Desjardins, [1985]).
(§2) Compounds were dissolved in DMSO and subsequently diluted in the culture medium (RPMI 1640) supplemented with 10% v/v human plasma. Serial 1:2 drug dilutions were prepared in triplicate in microtitre plates. Culture medium supplemented with 10% v/v human plasma and type A Rhesus positive human erythrocytes infected with P. falciparum strains was added to yield a haematocrit of 3% and a parasitaemia of 0.25–0.55%. The plates were incubated at 37°C in a modular incubator flushed with a mixture of 5% oxygen, 3% carbon dioxide, and 92% nitrogen for 48 h, and then [^3H]hypoxanthine was added to give a final concentration of 12.5–16 μCi·ml^−1. After incubation for additional 24 h, particulate matter was harvested on fibreglass strips and hypoxanthine incorporation determined by scintillation spectrophotometry. […] Delayed death experiments were performed by this standard method but extending the incubation time with the drug up to 96 h.

For data set [2], the system named is Plasmodium falciparum Dd2 (CQ,Q,PY,S). The data set is described as follows: microbe, parasite or virus in culture. It counts as cell-based. The following applies: for Delayed death phenotype: Dd2 and Dd2(AZ^R), 48 versus 96 h; for IC50: Plasmodium falciparum. The procedure: as §1, §2
The next data set relates to haem polymerization. The experiment in a line: Cell-free haem polymerization assay. It counts as biochemical. The following applies: cell‐free, N = 2. The procedure:
Experiments were performed according to Tripathi, Khan, Walker, and […] ([2004]). Briefly, a solution of sodium acetate containing mono-oleoyl glycol and the corresponding inhibitor at different concentrations is placed in 1.5-ml reaction tubes. […] Multiple washing steps with Tris/SDS and bicarbonate, to remove monomeric haem and haem aggregates, allow quantification of de novo formed β-haematin.

For another data set, the system named is H. influenzae ATCC49247. The experiment in a line: Antibacterial screen, broth microdilution. Format: cell-based. The following applies: Haemophilus influenzae. The procedure:
(§3) Antibacterial activity of compounds was determined by a standard broth microdilution method (Clinical Laboratory Standard Institute CLSI, [2009]), except that for Streptococcus strains lysed blood was substituted with 5% horse serum in the testing medium. […] The activities are expressed as minimum inhibitory concentrations (MICs) in units of μg·ml^−1. […] The organisms tested represented macrolide sensitive Gram‐positive pathogens that are mainly targeted by macrolide antibiotics. Tested streptococci were clinical isolates Streptococcus pneumoniae SP030 and Streptococcus pyogenes 3565 from internal strain collection, and other strains were obtained from ATCC bioresource centre, Staphylococcus aureus ATCC13709, Haemophilus influenzae ATCC49247, and Moraxella catarrhalis ATCC23246. Double dilutions of tested compounds were prepared using TECAN Genesis 150. Bacteria were grown on appropriate agar plates (Becton Dickinson, USA)—Columbia agar with 5% sheep blood for streptococci and M. catarrhalis, Mueller‐Hinton chocolate agar for H. influenzae , and Mueller‐Hinton agar for staphylococci.
In general terms: Dilution methods test growth across graded concentrations, often in twofold steps.

A further data set has as its system S. pneumoniae SP030. The data set is described as follows: Antibacterial screen, broth microdilution. It counts as cell-based. The following applies: Streptococcus pneumoniae. On the procedure:
as §3

The subject of another data set is S. pyogenes 3565. The experiment in a line: Antibacterial screen, broth microdilution. Format: cell-based. The following applies: Streptococcus pyogenes. The procedure: as §3
The test system of a further data set is S. aureus ATCC13709. The data set is described as follows: Antibacterial screen, broth microdilution. The following applies: Staphylococcus aureus. It counts as cell-based. The procedure:
as §3

Data set [3] is described as follows: Pharmacokinetics in P. falciparum infected and uninfected humanized mice. The following applies: for Cmax / Tmax: NODscidβ2m^−/−, mouse, whole blood, po, 12.5 mg/kg; for Cmax: C max, blood; for Cmax / Tmax / DNAUC(0–24): oral 12.5 mg·kg^−1, mean (SD); for Tmax: t max; for I/U (DNAUC infected versus uninfected): humanized mice, oral 12.5 mg·kg^−1. On the procedure: For pharmacokinetic (PK) studies in mice, animals were dosed either by intravenous (i.v.) or oral (p.o.) route.
For studies performed in Swiss albino CD‐1 mice (Harlan Laboratories, Spain), in order to obtain simultaneous blood and plasma profiles and blood‐to‐plasma (B/P) ratio, PK was performed using terminal sampling of N = 3 animals per time point and data evaluated using composite analysis. For studies performed in P. falciparum infected and non‐infected NODscidβ2m^−/− mice (Charles River Laboratories, France), only whole blood was obtained by serial sampling of N = 3 animals using tail puncture.
For analysis of whole blood samples, 25 μl of fresh blood were mixed with 25 μl of saponin solution (0.1% in water) and immediately frozen on dry ice. Plasma was obtained by centrifugation of fresh blood at 2,500 g for 10 min. Both blood and plasma samples were stored frozen at −80°C until analysis.
Diluted blood and plasma samples were processed under standard liquid–liquid extraction procedures using acetonitrile containing internal standard (clarithromycin, 100 ng·ml^−1) and analysed by LC–MS/MS in positive ion mode with electrospray. Samples were assayed for parent compound using a Sciex API 4000 and Sciex API‐2000 Triple Quadrupole Mass Spectrometer (Sciex, Division of MDS Inc., Toronto, Canada), against a series of matrix matched calibration curve standards, using multiple reaction monitoring (MRM) at the specific transitions for each compound. Non‐compartmental analysis was performed using WinNonlin, version 4.1 (Pharsight, Mountain View, CA), and the main pharmacokinetic parameters were estimated.

Data set [4] concerns Plasmodium falciparum Dd2(AZ^R). The experiment in a line: [3H]hypoxanthine incorporation antimalarial assay, azithromycin-resistant mutant Dd2(AZ^R). Format: cell-based. On the procedure:
as §1, §2

[5] abbreviates: DD2, 48 h, read-out: IC50 Dd2 48 h.
Where [6] appears, read: DD2, 72 h, read-out: IC50 Dd2 (CQ,Q,PY,S).
Where [7] appears, read: DD2, 96 h, read-out: IC50 Dd2 96 h.
[8] abbreviates: DD2, 48 h, read-out: IC50 Dd2(AZ^R) 48 h.
[9] abbreviates: DD2, 96 h, read-out: IC50 Dd2(AZ^R) 96 h.

In the case of `CC[C@H]1OC(=O)[C@H](C)[C@@H](O[C@H]2C[C@@](C)(OC)[C@@H](O)[C@H](C)O2)[C@H](C)[C@@H](O[C@@H]2O[C@H](C)C[C@H](N(C)C)[C@H]2O)[C@](C)(O)C[C@@H](C)CN(C)[C@H](C)[C@@H](O)[C@]1(C)O` [Azithromycin, reference compound], the “Tox50 HepG2” value in the data set on HepG2 cells was 203 ^b μM. Moreover, the IC50 is 15900 nM in [1]; 3270 nM in [2] (setting [5]); 1590 nM in [2] (setting [6]); 81 nM in data set [2] (setting [7]); greater than 50000 nM in the data set on haem polymerization; 3360 nM in data set [4] (setting [8]). Moreover, the IC50 in data set [4] (setting [9]) was 1480 nM. In addition, the Delayed death phenotype entry in data set [2] is given as “Yes”. Further, the MIC with H. influenzae ATCC49247 was 2 µg/mL (≈ 2.67 µM); in the data set with S. pneumoniae SP030, no more than 0.125 µg/mL; in the data set on S. pyogenes 3565, no more than 0.125 µg/mL; in the data set with S. aureus ATCC13709, 1 µg/mL (≈ 1.34 µM). In addition, the Cmax amounted to 344 ng/mL in data set [3] (infected (I) humanized mice) and 243 ng/mL in data set [3] (uninfected (U) humanized mice). Further, the figures for the Tmax in data set [3] (infected (I) humanized mice) and in [3] (uninfected (U) humanized mice) were 1 h and 1.67 h, respectively. Besides, in data set [3], the “I/U (DNAUC infected versus uninfected)” value turned out to be 1.1. Besides, the “DNAUC(0–24)” value was 161 (7) ng*h·ml^−1·mg^−1·kg^−1 in data set [3] (infected (I) humanized mice) and 146 (37) ng*h·ml^−1·mg^−1·kg^−1 in data set [3] (uninfected (U) humanized mice).

For the molecule `CC[C@H]1OC(=O)[C@H](C)[C@@H](O[C@H]2C[C@@](C)(OC)[C@@H](O)[C@H](C)O2)[C@H](C)[C@@H](O[C@@H]2O[C@H](C)C[C@H](N(C)C)[C@H]2O)[C@](C)(O)C[C@@H](C)CN(CCCNc2ccnc3cc(Cl)ccc23)[C@H](C)[C@@H](O)[C@]1(C)O` [Compound 1], the “Tox50 HepG2” value with HepG2 cells (ref Peric et al. ([2012])) is on record as 30 ^c μM. Moreover, the IC50 in [1] was 28 nM; in data set [2] (setting [5]), 17 nM; in [2] (setting [6]) it was 25 nM; in data set [2] (setting [7]), 12 nM; with haem polymerization, 2500 to 4000 nM; in data set [4] (setting [8]), 21 nM. Further, the IC50 in [4] (setting [9]) came to 11 nM. Further, the Delayed death phenotype entry in data set [2] was “No”. Also, the MIC against H. influenzae ATCC49247 was 16 µg/mL (≈ 16.8 µM); with S. pneumoniae SP030, no more than 0.125 µg/mL; against S. pyogenes 3565, no more than 0.125 µg/mL; against S. aureus ATCC13709, 1 µg/mL (≈ 1.05 µM). Also, the maximum concentration (Cmax) in data set [3] (infected (I) humanized mice) amounted to 775 ng/mL; in data set [3] (uninfected (U) humanized mice) it was 173 ng/mL. For the same molecule, the values for the time to peak (Tmax) in data set [3] (infected (I) humanized mice) and in [3] (uninfected (U) humanized mice) were 1 h and 0.75 h, respectively. Besides, in [3], the “I/U (DNAUC infected versus uninfected)” value amounted to 2.1. The “DNAUC(0–24)” value in data set [3] (infected (I) humanized mice) is on record as 362 (68) ng*h·ml^−1·mg^−1·kg^−1; in data set [3] (uninfected (U) humanized mice) it was 169 (33) ng*h·ml^−1·mg^−1·kg^−1.

For `CC[C@H]1OC(=O)[C@H](C)[C@@H](O)[C@H](C)[C@@H](O[C@@H]2O[C@H](C)C[C@H](N(C)C)[C@H]2OCCCNc2ccnc3ccccc23)[C@](C)(O)C[C@@H](C)CN[C@H](C)[C@@H](O)[C@]1(C)O` [Compound 3], the “Tox50 HepG2” value in the data set with HepG2 cells (ref Pesic et al. ([2012])) is 83 ^b μM. Besides, the IC50 in [1] is 30 nM; in data set [2] (setting [5]), 24 nM; in data set [2] (setting [6]) it was 30 nM; in [2] (setting [7]) it was 22 nM; in the data set with haem polymerization, 5000 to 6200 nM; in data set [4] (setting [8]), 27 nM. The IC50 in [4] (setting [9]) was 23 nM. Also, the Delayed death phenotype entry in data set [2] is given as “No”. In addition, the MIC against H. influenzae ATCC49247, with S. pneumoniae SP030, against S. pyogenes 3565 and with S. aureus ATCC13709 was greater than 64 µg/mL throughout. Moreover, the Cmax in data set [3] (infected (I) humanized mice) was determined as 348 ng/mL; in [3] (uninfected (U) humanized mice), 83.8 ng/mL. Also, the Tmax in [3] (infected (I) humanized mice) turned out to be 1.67 h; in data set [3] (uninfected (U) humanized mice), 2.2 h. Moreover, the “I/U (DNAUC infected versus uninfected)” value in data set [3] is on record as 3.9. For the same molecule, the entries for the “DNAUC(0–24)” value in data set [3] (infected (I) humanized mice) and in data set [3] (uninfected (U) humanized mice) were 354 (129) ng*h·ml^−1·mg^−1·kg^−1 and 91 (85) ng*h·ml^−1·mg^−1·kg^−1, respectively.

As a reminder, the Cmax is the maximum level reached in the sampled fluid or tissue. What is called Tmax is the time at which the peak concentration occurs.
